Assays:
Format in all cases: biochemical
[1] = target: T1, MMP 1 (Homo sapiens, UniProt P03956); test: In Vitro Collagenase Assay (human recombinant fibroblast collagenase, fluorogenic peptide substrate)
T1 construct: human recombinant fibroblast collagenase (truncated mw=18,828, WAR, Radnor)
T1 sequence (P03956 100-269 limits assumed): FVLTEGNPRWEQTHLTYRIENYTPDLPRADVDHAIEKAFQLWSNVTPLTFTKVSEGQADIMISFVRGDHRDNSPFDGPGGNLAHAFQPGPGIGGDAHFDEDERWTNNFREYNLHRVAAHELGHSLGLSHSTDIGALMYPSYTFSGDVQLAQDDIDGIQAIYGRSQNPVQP
Experimental: The assay is based on the cleavage of a peptide substrate ((Dnp-Pro-Cha-Gly-Cys(Me)-His-Ala-Lys(NMa)-NH2), Peptide International Inc.) by collagenase releasing the fluorescent NMa group which is quantitated on the fluorometer. Dnp quenches the NMa fluorescence in the intact substrate. […] Substrate is dissolved in methanol and stored frozen in 1 mM aliquots. […] For the assay, substrate is dissolved in HCBC buffer to a final concentration of 10 μM and collagenase to a final concentration of 5 nM. Compounds are dissolved in methanol, DMSO, or HCBC. The methanol and DMSO are diluted in HCBC to <1.0%. Compounds are added to the 96 well plate containing enzyme and the reaction is started by the addition of substrate.
The slope of the line is calculated and represents the reaction rate.
The mean (x±sem) of the control rate is calculated and compared for statistical significance (p<0.05) with drug-related rates using Dunnett's multiple comparison test.

[2] = target: T2, MMP 9 (Homo sapiens, UniProt P14780); test: In Vitro Gelatinase Assay (human neutrophil gelatinase B, thiopeptide substrate/DTNB)
T2 construct: from tissue; host or cells: human neutrophils
Experimental: The assay is based on the cleavage of the thiopeptide substrate ((Ac-Pro-Leu-Gly(2 Mercapto-4 methyl-pentanoyl)-Leu-Gly-OEt), Bachem Bioscience) by the enzyme, gelatinase, releasing the substrate product which reacts colorimetrically with DTNB ((5,5′-dithio-bis(2-nitro-benzoic acid)). The enzyne activity is measured by the rate of the color increase. The thiopeptide substrate is made up fresh as a 20 mM stock in 100% DMSO and the DTNB is dissolved in 100% DMSO as a 100 mM stock and stored in dark at room temperature. Both the substrate and DTNB are diluted together to 1 mM with substrate buffer (50 mM HEPES pH 7.5, 5 mM CaCl2) before use.
The increase in OD405 is plotted and the slope of the line is calculated which represents the reaction rate.
The mean (x±sem) of the control rate is calculated and compared for statistical significance (p<0.05) with drug-treated rates using Dunnett's multiple comparison test.

[3] = target: MMP 13 (Homo sapiens, UniProt P45452); test: MMP 13 inhibition (standard/manual test)
[4] = target: T3, TACE (Homo sapiens, UniProt P78536); test: Procedure for Measuring TACE Inhibition (fluorescent peptidyl substrate); conditions: 1 micromolar
T3 construct: purchased Immunex
T3 sequence (P78536 215-824): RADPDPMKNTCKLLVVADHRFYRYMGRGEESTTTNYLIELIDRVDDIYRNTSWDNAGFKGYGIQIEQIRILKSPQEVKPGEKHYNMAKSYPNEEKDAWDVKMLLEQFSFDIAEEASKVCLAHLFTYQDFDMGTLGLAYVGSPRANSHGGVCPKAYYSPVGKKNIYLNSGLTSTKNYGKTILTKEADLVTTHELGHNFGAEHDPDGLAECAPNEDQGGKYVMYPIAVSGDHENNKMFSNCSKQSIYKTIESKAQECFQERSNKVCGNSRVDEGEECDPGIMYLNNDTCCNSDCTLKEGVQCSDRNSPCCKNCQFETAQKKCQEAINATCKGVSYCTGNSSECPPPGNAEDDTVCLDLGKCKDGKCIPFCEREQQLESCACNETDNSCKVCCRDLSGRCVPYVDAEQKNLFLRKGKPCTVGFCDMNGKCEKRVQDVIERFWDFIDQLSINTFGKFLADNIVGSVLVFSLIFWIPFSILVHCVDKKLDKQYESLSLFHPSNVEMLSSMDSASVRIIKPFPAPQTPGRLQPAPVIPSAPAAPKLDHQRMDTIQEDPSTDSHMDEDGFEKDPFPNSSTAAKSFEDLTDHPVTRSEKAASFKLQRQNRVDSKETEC

T2 sequence (P14780 94-707): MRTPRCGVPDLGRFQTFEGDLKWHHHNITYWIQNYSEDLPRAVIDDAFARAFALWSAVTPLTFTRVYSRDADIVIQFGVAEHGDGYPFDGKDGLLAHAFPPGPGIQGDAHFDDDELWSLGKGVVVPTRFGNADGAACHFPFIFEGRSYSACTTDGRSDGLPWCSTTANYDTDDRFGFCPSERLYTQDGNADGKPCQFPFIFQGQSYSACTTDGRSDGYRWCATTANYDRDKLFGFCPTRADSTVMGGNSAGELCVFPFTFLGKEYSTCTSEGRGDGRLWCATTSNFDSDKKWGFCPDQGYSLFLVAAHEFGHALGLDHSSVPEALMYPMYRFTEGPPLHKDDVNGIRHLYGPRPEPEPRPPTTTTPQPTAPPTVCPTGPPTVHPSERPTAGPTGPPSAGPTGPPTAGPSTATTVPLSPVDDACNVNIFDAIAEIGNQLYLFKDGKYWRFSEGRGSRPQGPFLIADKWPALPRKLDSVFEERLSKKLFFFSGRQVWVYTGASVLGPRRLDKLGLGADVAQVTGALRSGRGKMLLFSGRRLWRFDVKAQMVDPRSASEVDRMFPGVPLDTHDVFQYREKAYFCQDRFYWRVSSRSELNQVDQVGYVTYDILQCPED

SMILES | MMP 1 % inhibition at 1 micromolar [1] [%] | MMP 9 % inhibition at 1 micromolar [2] [%] | MMP 13 % inhibition at 1 micromolar [3] [%] | TACE % inhibition at 1 micromolar [4] [%] | IC50 ([1]; read-out: MMP 1 IC 50) [nM] | IC50 ([2]; read-out: MMP 9 IC 50) [nM] | IC50 ([3]; read-out: MMP 13 IC 50) [nM]
Cc1occc1S(=O)(=O)C(C)(Cc1ccc(OCCN2CCCCC2)cc1)C(=O)NO (stereo not drawn) [Example 44, 2-Methyl-2-(2-methyl-furan-3-sulfonyl)3-[4-(2-piperidin-1-yl-ethoxy)phenyl]-propionic acid hydroxamide] | 47.1 | 36.9 | 39.5 | 14.9 | – | – | –
CCCCCCCCS(=O)(=O)C(Cc1ccc(OCCN2CCCCC2)cc1)C(=O)NO (stereo not drawn) [Example 46, 2-(octane-1-sulfonyl)-3-[4-(2-piperidin-yl-ethoxy)-phenyl]propionic acid hydroxamide] | 78.9 | 79.12 | 84.7 | 1.4 | – | – | –
COc1ccc(S(=O)(=O)C2(C(=O)NO)CCN(CC=C(C)C)CC2)cc1 [Example 89, 4-(4methoxy-benzene-sulfonyl)-1-(3-methyl-but-2-enyl)-piperdine-4-carboxylic acid hydroxamide] | – | – | – | 49 | 1390 | 38.6 | 7

Source: patent publication US6342508B1, “N-hydroxy-2-(Alkyl,Aryl or Heteroaryl sulfanyl, sulfinyl or sulfonyl) 3-substituted alkyl, aryl or heteroarylamides as matrix metalloproteinase inhibitors” (American Cyanamid Company, priority 1997, dated 2002)
